From patent US20120100230A1, “Systems, Devices, and/or Methods for Managing Crops” (DHARMA IP, LLC, priority 2010, published 2012) come the findings set out here.

The series is described as follows: Solubility of beta-cyclodextrin in water containing ClO2 (slurry test). Type of series: physicochemical. Particulars: 100 g slurry, 5% beta-cyclodextrin (w/w) in 8000 ppm ClO2 vs ultrapure water, 200 rpm, 3 days. The method, then:
However indirect evidence for the complex has been observed. Beta-cyclodextrin has a known solubility in water. If the water contains a guest substance that produces a cyclodextrin complex more soluble than the cyclodextrin alone, more of the cyclodextrin will dissolve into water containing that guest than into plain water. This enhanced solubility has been observed for beta-cyclodextrin in water containing ClO2. Two separate 100 g slurries of beta-cyclodextrin solutions were prepared. […] Both slurries were mixed at 200 rpm for 3 days, at which time the undissolved beta-cyclodextrin was isolated from both solutions and dried for 2 days in a desiccator. […] It is believed, by extension, that ClO2 might form complexes with gamma-cyclodextrin and/or chemically derivatized versions of the natural (alpha- (“α”), beta- (“β”), and gamma- (“γ”)) cyclodextrins. In the case of beta- and/or gamma-cyclodextrin and/or other cyclodextrins having internal cavities larger than that of alpha-cyclodextrin, it might be that the complex(es) formed with ClO2 will incorporate numbers of ClO2 molecules greater than one per cyclodextrin molecule.

Consider `OC[C@H]1O[C@@H]2O[C@H]3[C@H](O)[C@@H](O)[C@@H](O[C@H]4[C@H](O)[C@@H](O)[C@@H](O[C@H]5[C@H](O)[C@@H](O)[C@@H](O[C@H]6[C@H](O)[C@@H](O)[C@@H](O[C@H]7[C@H](O)[C@@H](O)[C@@H](O[C@H]8[C@H](O)[C@@H](O)[C@@H](O[C@H]1[C@H](O)[C@H]2O)O[C@@H]8CO)O[C@@H]7CO)O[C@@H]6CO)O[C@@H]5CO)O[C@@H]4CO)O[C@@H]3CO` [beta-cyclodextrin], for which the “weight of dried undissolved beta-cyclodextrin from ClO2 containing slurry less than the control slurry” value is 0.32 g.
